{"source": "patent US20190269705A1", "about": "“METHODS AND MATERIALS FOR TREATING GRAFT VERSUS HOST DISEASE” (Regents of the University of Minnesota, priority 2017, published 2019)", "key": {"[1]": {"tested_on": "CD4 T cells (Th0 conditions)", "assay": "CD4 T cells activated and cultured in IL2 (Th0 conditions), flow cytometry"}, "[2]": {"tested_on": "hgp100-expressing vaccinia virus", "details": "mouse, in vivo"}, "[3]": {"details": "mouse, in vivo"}, "Th17 cells [4]": {"tested_on": "Th17 cells", "assay": "CD4 T cells in Th17 skewing conditions, flow cytometry"}, "Th1 cells": {"tested_on": "Th1 cells", "assay": "CD4 T cells in Th1 skewing conditions, flow cytometry"}, "Th17 cells [5]": {"tested_on": "Th17 cells", "assay": "Nutrient uptake and secretion by NMR", "type": "cell-based, mouse"}, "stimulated CD4+ T cells": {"tested_on": "stimulated CD4+ T cells", "assay": "13C-glucose tracing of stimulated CD4 T cells (LC-HRMS)", "type": "cell-based, mouse", "details": "1 μM CB839, 13C-glucose, 24 hours", "procedure": "^13C-Glucose Activation: CD4 cells were activated on 5 μg/mL αCD3/CD28 for 3 days. At day 3, cells were pooled, washed 3× in PBS, and re-stimulated in presence of 1 μM CB839 or Vehicle (DMSO) and 11 mM ^13C glucose (Cambridge Isotope Labs, Cat #: CLM-1396-1). Cells were incubated for 24 hours at 37° C., then scraped and combined in triplicate. Cells were rinsed with 0.9% saline and metabolites were extracted in methanol. Metabolites measured by LC-High-Resolution Mass Spectrometer (LC-HRMS) using a Q-exactive machine. The time-dependent glucose labeling pattern was modeled as with the following equation: […]\n^13C Tracing. To measure 13C-Glucose tracing in T cell activation, CD4 cells were stimulated on 5 μg/mL anti-CD3/CD28 for 3 days. At day 3, cells were pooled, washed 3× in PBS, and re-stimulated in presence of 1 uM CB839 or Vehicle (DMSO) and 11 mM 13C glucose (Cambridge Isotope Labs, Cat #: CLM-1396-1). Cells were incubated for 24 hours at 37 °C, then scraped and combined in triplicate. Cells were rinsed with 0.9% saline and metabolites were extracted in methanol. Metabolites measured by LC High-Resolution Mass Spectrometer (LC-HRMS) using a Q-Exactive machine as previously described(Liberti et al., 2017). The time-dependent glucose labeling pattern was modeled as with the following equation: […]"}, "CD8 T cells": {"tested_on": "CD8 T cells", "assay": "CD8 T cells activated on αCD3/CD28 + IL2, flow cytometry"}, "CD19+ B cells": {"tested_on": "CD19+ B cells", "assay": "In vivo CAR T cells treated ex vivo", "design": "species or system mouse", "details": "CAR-T cells treated with CB839 during in vitro transduction", "source_text": "CAR T cells were produced as described elsewhere (see, e.g., Li et al., “Gammaretroviral Production and T Cell Transduction to Genetically Retarget Primary T Cells Against Cancer.” In: Lugli E, ed. T-Cell Differentiation: Methods and Protocols. New York, N.Y.: Springer New York; 2017:111-118). Briefly, spleen T cells were isolated from Thy1.1 B6 mice at day 0. Cells were then activated with mouse CD3/CD28 Dynabeads and 30 IU/ml recombinant human IL2. At day 1 and 2, cells were spin transduced twice with retrovirus carrying CARs. At day 3, cells were fed with fresh medium. At day 4, transduced T cells were harvested, beads removed, evaluated for viability, transduction efficiency, immune phenotype and ready for use. For CB839 treated CAR T cells, CB839 were added to the culture at day 1, 2 and 3 at 1 μM. For in vivo study, C57B6 mice (n=25) were i.p. injected with cyclophosphamide (CTX) at 300 mg/kg. Mice were i.v. injected with 3×10^5 CAR T cells one day after CTX injection. Peripheral blood (PB) samples were collected 1, 2, 4 and 6 weeks after CAR T injection, stained with B cell and T cell antibodies and subjected to flow cytometry. […]\nCAR T cells were produced as previously described (Li et al., 2017). […] At day 4, transduced T cells were harvested, beads removed, evaluated for viability, transduction efficiency, immune phenotype and ready for use. […]"}, "[6]": {"details": "activated CD4 T cells, IL2, day 5"}, "[7]": {"details": "CD8 T cells, five days stimulation"}}, "note": "Entries after “also recorded” stand apart in the source; their conditions may differ.", "data": [{"smiles": "O=C(Cc1cccc(OC(F)(F)F)c1)Nc1ccc(CCCCc2nnc(NC(=O)Cc3ccccn3)s2)nn1", "note": "[CB839]", "values": [{"measurement": "Foxp3 expression", "setting": "[1]; CD4+ T cells stimulated in the presence of IL-2 and CB839", "value": "unchanged"}, {"measurement": "phospho-S6", "setting": "[1]; Th0 cells in the presence of IL2", "value": "enhanced phospho-S6"}, {"measurement": "IFNγ expression", "setting": "[1]; [6]", "value": "greater expression of IFNγ"}, {"measurement": "Tbet expression", "setting": "[1]; [6]", "value": "greater expression"}, {"measurement": "time increased cell numbers persisted", "setting": "[2]", "value": "greater than 5 weeks"}, {"measurement": "accumulation / persistence of transferred CD8 T cells", "setting": "[3]", "value": "accumulated to greater numbers in vivo by day 7; also recorded: enhances T cell persistence"}, {"measurement": "Myc protein", "setting": "Th17 cells [4]; Th17", "value": "modestly increased Myc in Th1 but not Th17 cells"}, {"measurement": "proliferation", "setting": "Th17 cells [4]; Th17", "value": "decreased cytokine production and proliferation only from Th17 cells"}, {"measurement": "H3K27 tri-methylation, initially", "setting": "Th17 cells [4]; Th17, Day 3", "value": "increased H3K27 tri-methylation"}, {"measurement": "proliferation", "setting": "Th17 cells [4]; Th17, after three days in culture", "value": "impaired proliferation"}, {"measurement": "ROS (DCFDA)", "setting": "Th17 cells [4]; Th17, day 5", "value": "ROS increased"}, {"measurement": "expression of KLRG1 and PD1", "setting": "Th17 cells [4]; Th17, day 5", "value": "decreased or unchanged"}, {"measurement": "global H3K27 trimethylation", "setting": "Th17 cells [4]; Th17, day 5, normalized to total H3", "value": "increased"}, {"measurement": "phospho-S6", "setting": "Th17 cells [4]; Th17, day 5, with IL2", "value": "decreased phosphor-S6; also recorded: decreased phospho-S6"}, {"measurement": "ROS (DCFDA)", "setting": "Th17 cells [4]; Th17, day 5, listed as CD839", "value": "increased ROS"}, {"measurement": "global H3K4 trimethylation", "setting": "Th17 cells [4]; Th17, day five", "value": "increased"}, {"measurement": "total rRNA levels per cell", "setting": "Th17 cells [4]; Th17, day five", "value": "decreased"}, {"measurement": "Th17 cytokine production and differentiation", "setting": "Th17 cells [4]; Th17 skewing, 5 days, CB839 vs vehicle", "value": "decreased cytokine production and proliferation only from Th17 cells"}, {"measurement": "induction of Treg (Foxp3)", "setting": "Th17 cells [4]; under Th17 conditions", "value": "failed to do so"}, {"measurement": "Myc protein", "setting": "Th1 cells; Th1", "value": "modestly increased Myc"}, {"measurement": "H3K27 tri-methylation, initially", "setting": "Th1 cells; Th1, Day 3", "value": "increased H3K27 tri-methylation"}, {"measurement": "proliferation", "setting": "Th1 cells; Th1, after three days in culture", "value": "impaired proliferation"}, {"measurement": "ROS (DCFDA)", "setting": "Th1 cells; Th1, day 5", "value": "ROS increased"}, {"measurement": "expression of KLRG1 and PD1", "setting": "Th1 cells; Th1, day 5", "value": "increased expression of KLRG1 and PD1"}, {"measurement": "global H3K27 trimethylation", "setting": "Th1 cells; Th1, day 5, normalized to total H3", "value": "decreased"}, {"measurement": "phospho-S6", "setting": "Th1 cells; Th1, day 5, with IL2", "value": "increased phosphor-S6; also recorded: increased phospho-S6"}, {"measurement": "ROS (DCFDA)", "setting": "Th1 cells; Th1, day 5, listed as CD839", "value": "increased ROS"}, {"measurement": "global H3K4 trimethylation", "setting": "Th1 cells; Th1, day five", "value": "decreased; also recorded: reduced"}, {"measurement": "proliferation", "setting": "Th1 cells; Th1, day five", "value": "partially recovered proliferation by day five"}, {"measurement": "total rRNA levels per cell", "setting": "Th1 cells; Th1, day five", "value": "increased"}, {"measurement": "H3K27 methylation in the absence of IL2", "setting": "Th1 cells; Th1 skewing conditions, no IL2", "value": "hypermethylated H3K27"}, {"measurement": "Th1 cytokine production and differentiation", "setting": "Th1 cells; Th1 skewing, 5 days, CB839 vs vehicle", "value": "increased; also recorded: appeared to increase Th1 cytokine secretion"}, {"measurement": "induction of Treg (Foxp3)", "setting": "Th1 cells; under Th1 conditions", "value": "failed to do so"}, {"measurement": "glutamine uptake and glutamate, pyruvate, and lactate secretion", "setting": "Th17 cells [5]", "value": "reduced upon GLS inhibition"}, {"measurement": "N-carbamoyl-aspartate", "setting": "stimulated CD4+ T cells", "value": "decreased"}, {"measurement": "TCA intermediates fractional labeling with glucose-derived 13C", "setting": "stimulated CD4+ T cells", "value": "increased fractional labeling"}, {"measurement": "TCA intermediates overall abundance", "setting": "stimulated CD4+ T cells", "value": "reduced in overall abundance"}, {"measurement": "aspartate levels", "setting": "stimulated CD4+ T cells", "value": "decreased significantly"}, {"measurement": "glucose-derived 13C in glutamate and aspartate", "setting": "stimulated CD4+ T cells", "value": "increased in both glutamate and aspartate"}, {"measurement": "glutamate", "setting": "stimulated CD4+ T cells", "value": "decreased glutamate"}, {"measurement": "glycine abundance", "setting": "stimulated CD4+ T cells", "value": "unchanged"}, {"measurement": "glycolytic intermediates abundance", "setting": "stimulated CD4+ T cells", "value": "more abundant"}, {"measurement": "intracellular glutamine", "setting": "stimulated CD4+ T cells", "value": "increased intracellular glutamine"}, {"measurement": "lactate levels and 13C-labeling", "setting": "stimulated CD4+ T cells", "value": "unchanged"}, {"measurement": "pyruvate abundance", "setting": "stimulated CD4+ T cells", "value": "decreased"}, {"measurement": "serine and alanine abundance", "setting": "stimulated CD4+ T cells", "value": "also decreased"}, {"measurement": "Granzyme B", "setting": "CD8 T cells; CD8 T cells, 4-5 days stimulation", "value": "increased levels of Granzyme B"}, {"measurement": "Eomes", "setting": "CD8 T cells; [7]", "value": "increased levels"}, {"measurement": "Perforin", "setting": "CD8 T cells; [7]", "value": "increased"}, {"measurement": "Tbet", "setting": "CD8 T cells; [7]", "value": "increased levels"}, {"measurement": "markers of proliferation", "setting": "CD8 T cells; [7]", "value": "increased levels"}, {"measurement": "portion of CD8 T cells expressing inhibitory receptors Lag3 and PD-1", "setting": "CD8 T cells; [7]", "value": "increased"}, {"measurement": "phospho-S6", "setting": "CD8 T cells; CTL in the presence of IL2", "value": "enhanced phospho-S6"}, {"measurement": "CAR-T cell accumulation / persistence in vivo", "setting": "CD19+ B cells", "value": "accumulated in vivo to a greater extent; also recorded: enhances T cell persistence"}, {"measurement": "elimination of CD19+ targets in vivo", "setting": "CD19+ B cells", "value": "equivalently capable; also recorded: equally capable of eliminating CD19+ targets in vivo"}]}]}
